Data on 1 substance can be found in patent publication US7744927B2, “Methods of promoting hematopoietic and mesenchymal cell proliferation and differentiation” (University of Southern California, priority 1997, dated 2010).

For assay [1], the system named is cultured cells that are involved in wound repair. To be noted: cited from earlier work.
For assay [2], the system named is cells that express alkaline phosphatase (rat bone marrow MSC). In words: Alkaline phosphatase expression by MSC in osteogenic medium. To be noted: osteogenic medium 4 days, absorbance at 405 nm. The assay is classed as cell-based, Sprague Dawley rats. The source says: Mesenchymal stem cells isolated from bone marrow and grown under appropriate conditions can express characteristics of multiple cell types, including cells involved in the generation of bone, cartilage, muscle and tendons. Osteogenic cells (cells that can form bone tissue) express the enzyme alkaline phosphatase when cultured in medium that drives them toward their osteogenic differentiation.
Bone marrow from female Sprague Dawley rats were harvested by flushing the femur with medium. The cells were placed in culture dishes 9 […], allowed to adhere overnight, and then placed in DMEM-LG medium containing antibiotics and 10% fetal calf serum together with varying concentrations of AII. At various times after culture initiation, the cells were washed with Tyrode's buffer and placed in osteogenic medium (DMEM-LG containing 10% fetal calf serum, 100 nM dexamethasone and 0.05 mM ascorbic acid) for 4 days prior to assessment of the level of alkaline phosphatase activity per well. Briefly, the wells were washed with Tyrode's buffer and 1 ml alkaline phosphatase substrate solution (50 mM glycine, pH 10.5, containing 1 mM magnesium chloride and 2.5 mM p-nitrophenyl phosphate) to each well. […] The absorbance of the resultant mixture at 405 nm was then determined via spectroscopy. The level of alkaline phosphatase activity is expressed as the level of absorbance per culture dish.

Assay [3] has as its system human peripheral blood mononuclear cells (PBMC). In words: Respiratory burst (hydrogen peroxide generation), human PBMC. The class given is cell-based. To be noted: alone and in response to PMA 10 ng/ml; 4 hours exposure. The method, then: (§1) The respiratory burst of leukocytes (macrophages and polymorphonuclear neutrophils) is one component of the mediator system used to kill bacteria. As with phagocytosis, the level of this respiratory burst activity in resident macrophages is low. […] Studies were conducted to assess the effect of in vitro exposure of murine or rat peritoneal macrophages and human peripheral blood mononuclear cells (PBMC) to various concentrations of AII on the capacity to generate hydrogen peroxide via the respiratory burst system. For the human studies, five different donors were examined.
(§2) The murine or rat peritoneal cells were harvested by lavage with 5-15 ml of cold PBS with 0.5% bovine serum albumin. The human PBMC were harvested by venipuncture from normal human volunteers and isolated from peripheral blood by Ficoll Hypaque density centrifugation. After isolation, the cells were resuspended at 1×10^6 cells/ml and placed at 100 μl per well into 96 well plates. The cells were incubated with various concentrations of AII or AII analogues for 4 hours at 37° C. The cells were then preloaded with a fluorescent probe for hydrogen peroxide, 2,7 dichlorofluorescein acetate, which is nonfluorescent in the absence of hydrogen peroxide. Fifteen minutes later, 10 ng/ml of phorbol myristate acetate (+PMA) or PBS (−PMA) was added to stimulate the production of hydrogen peroxide. One hour after stimulation the level of fluorescence produced was measured on a Cytofluor 2350 multiwell fluorometer.

Assay [4] has as its system murine peritoneal macrophages. Kind of assay: Respiratory burst (hydrogen peroxide generation), murine peritoneal macrophages. The class given is cell-based. To be noted: alone and in response to PMA 10 ng/ml; 4 hours exposure. The method, then: as §1
as §2, with “Fifteen minutes later, 10 ng/ml of phorbol myristate acetate (+PMA) or PBS (−PMA) was added to stimulate the production of hydrogen peroxide.” left out

Assay [5] has as its system murine HPC. In words: Murine HPC colony formation in the absence of colony stimulating factors. To be noted: 14 days. The assay is classed as cell-based, C57B1/6 mice. How it is done: HPC were harvested from C57B1/6 mice by immunomagnetic affinity chromatography and placed in semi-solid cultures with optimal growth medium in the absence of colony stimulating factors. At various times after initiation of culture, the formation of colonies and the size of the colonies (number of cells/colony) was assessed microscopically.
Female C57B1/6 mice were purchased from Simonson and used as a source of bone marrow cells in this study. The bone marrow was harvested from the femur and tibia of mice by flushing with phosphate buffered saline (PBS), pH 7.4, containing 2% fetal bovine serum (FBS) with a 21-gauge needle. The eluant from the flushing was centrifuged and the pellet was resuspended at 4×10^7 nucleated cells/ml in PBS containing PBS containing 2% FBS and 5% normal rat serum.
The reagents for immunomagnetic labeling were purchased from Stem Cell Technologies, Inc. (Vancouver, BC). Biotin-labeled monoclonal antibodies to the following murine lineage-specific cell surface antigens were included in a cocktail for HPC enrichment and used according to the manufacturer's instructions: CD5 (Ly-1), CD45-R (B220), CD11b (Mac-1), Myeloid Differentiation Antigen (Gr-1) and Erythroid Cells (TER 119) Ten μl of antibody cocktail was added to the bone marrow, mixed and allowed to incubate at 4° C. for 15 minutes. […]

Assay [6] deals with chick chorioallantoic membrane. To be noted: in vivo; cited from earlier work.

Turning to “Asp-Arg-Val-Tyr-Ile-His-Pro-Phe [AII, known pressor agent, commercially available]”, the mitogenesis and chemotaxis entry in assay [1] was “increases mitogenesis and chemotaxis”. Further, the “proliferation of cells that express alkaline phosphatase” value in assay [2] is “can accelerate the proliferation of cells that express alkaline phosphatase”. For the same substance, the “ability to generate hydrogen peroxide (respiratory burst)” value in assay [3] and in assay [4] was “increased the ability of leukocytes to generate hydrogen peroxide” throughout. In assay [5], the “HPC colony size / HPC proliferation” value is listed as “HPC colony size increases proportionately”. The angiogenic activity entry in assay [6] is reported as “angiogenic”.
